In patent US9376462B2, “Process for preparing delta-7,9(11) steroids from Ganoderma lucidum and analogs thereof” (Indiana University Research and Technology Corporation, priority 2010, dated 2016):
pIC50: −log10 of the molar value. Where two headings read alike, the source gives them in different places.

How the values were obtained:
MCF-7 cells = assay: Cell proliferation assay (tetrazolium salt/MTT method), MCF-7; type: cell-based; conditions: Homo sapiens, read-out: IC50, inhibition of cell proliferation
Method: (§1) Cell culture: The human breast cancer cell lines MCF-7 and MDA-MB-231, obtained from ATCC (Manassas, Va.), were cultivated in Dulbecco's modified Eagle's medium (DMEM) containing penicillin (50 U/ml), streptomycin (50 U/ml), and 10% fetal bovine serum (FBS). Media and supplements were from Invitrogen (Grand Island, N.Y.).
(§2) Cell proliferation assay: Ganodermanontriol, 13, 14, and 15 (isomers) were dissolved in DMSO (Sigma; St. Louis, Mo.) at a concentration of 10 mM and stored at 4° C. Dulbecco's phosphate buffered saline (DPBS) was purchased from Cambrex Bio Science Walkersville, Inc. (Walkersville, Md.). Cell proliferation was determined by the tetrazolium salt method (MTT method), according to the manufacturer's instructions (Promega, Madison, Wis.). Briefly, MCF-7 and MDA-MB-231 cells (2.5×10^3/well) were cultured in a 96-well plate and treated with ganodermanontriol, 13, 14 and 15 (0-100 μg/ml) for 24, 48, and 72 hrs. At the end of the incubation period, the cells were harvested and absorption was determined with an ELISA plate reader at 570 nm. Data points represent mean±SD in triplicate determinations repeated at least twice. IC50 values were determined by using SigmaPlot (Systat Software Inc, San Jose, Calif.).

MDA-MB-231 cells = assay: Cell proliferation assay (tetrazolium salt/MTT method), MDA-MB-231; type: cell-based; conditions: Homo sapiens, read-out: IC50, inhibition of cell proliferation
Method: as §1, §2

[1] = molecular target: recombinant HIV-1 protease (Human immunodeficiency virus type 1 group M subtype B, UniProt P04585); conditions: cited from earlier work
[2] = system: classical pathway (CP) of the complement system; conditions: read-out: IC(50), anticomplement activity; cited from earlier work
HIV-1 = conditions: MT-4 cells; cited from earlier work
human colon cancer cells = conditions: in vitro; cited from earlier work
[3] = system: xenograft model of colon cancer; conditions: cited from earlier work
mammalian cells = conditions: potentially through inhibition of lanosterol 14α demethylase; cited from earlier work
[4] = MDA-MB-231 cells, 72 h, 0-100 μM

Row | Compound | pIC50 (MCF-7 cells; MCF7 cells, 72 h, 0-100 μM) | pIC50 (MDA-MB-231 cells; [4]) | inhibitory activity against recombinant HIV-1 protease [1] | further results
1 | C[C@H](CC[C@H](O)[C@@](C)(O)CO)[C@H]1CC[C@@]2(C)C3=CCC4C(C)(C)C(=O)CC[C@]4(C)C3=CC[C@]12C (stereo partly drawn) [compound 14, (10S,13R,14R,17R)-4,4,10,13,14-Pentamethyl-17-((2R,5S,6S)-5,6,7-trihydroxy-6-methylheptan-2-yl)-4,5,6,10,12,13,14,15,16,17-decahydro-1H-cyclopenta[a]phenanthren-3(2H)-one] | 4.79 | 4.44 | – | –
2 | ganodermanodiol | – | – | significant inhibitory activity | –
3 | C[C@H](CC[C@H](O)[C@](C)(O)CO)[C@H]1CC[C@@]2(C)C3=CCC4C(C)(C)C(=O)CC[C@]4(C)C3=CC[C@]12C (stereo partly drawn) [compound 1, (10S,13R,14R,17R)-4,4,10,13,14-Pentamethyl-17-((2R,5S,6R)-5,6,7-trihydroxy-6-methylheptan-2-yl)-4,5,6,10,12,13,14,15,16,17-decahydro-1H-cyclopenta[a]phenanthren-3(2H)-one] | – | – | significant inhibitory activity | pIC50 (MCF-7 cells; MCF7, 72 h): 5.24; pIC50 (MDA-MB-231 cells; MDA-MB-231, 72 h): 5.01; pIC50 [2]: 4.76; inhibition of HIV-1-induced cytopathic effect (HIV-1): inhibited; proliferation of human colon cancer cells (human colon cancer cells): suppressed proliferation; tumor growth [3]: inhibited tumor growth
4 | C/C(=C\CC[C@@H](C)[C@H]1CC[C@@]2(C)C3=CCC4C(C)(C)C(=O)CC[C@]4(C)C3=CC[C@]12C)CO (stereo partly drawn) [ganoderol A, (10S,13R,14R,17R)-17-((R,E)-7-Hydroxy-6-methylhept-5-en-2-yl)-4,4,10,13,14-pentamethyl-4,5,6,10,12,13,14,15,16,17-decahydro-1H-cyclopenta[a]phenanthren-3(2H)-one] | – | – | – | melting point: 75 to 80 °C; hypocholestemic activity (mammalian cells): significant hypocholestemic activity
5 | C[C@H](CC[C@@H](O)[C@@](C)(O)CO)[C@H]1CC[C@@]2(C)C3=CCC4C(C)(C)C(=O)CC[C@]4(C)C3=CC[C@]12C (stereo partly drawn) [compound 13, (10S,13R,14R,17R)-4,4,10,13,14-Pentamethyl-17-((2R,5R,6S)-5,6,7-trihydroxy-6-methylheptan-2-yl)-4,5,6,10,12,13,14,15,16,17-decahydro-1H-cyclopenta[a]phenanthren-3(2H)-one] | 4.62 | 4.47 | – | –
6 | C[C@H](CC[C@@H](O)[C@](C)(O)CO)[C@H]1CC[C@@]2(C)C3=CCC4C(C)(C)C(=O)CC[C@]4(C)C3=CC[C@]12C (stereo partly drawn) [compound 15, (10S,13R,14R,17R)-4,4,10,13,14-Pentamethyl-17-((2R,5R,6R)-5,6,7-trihydroxy-6-methylheptan-2-yl)-4,5,6,10,12,13,14,15,16,17-decahydro-1H-cyclopenta[a]phenanthren-3(2H)-one] | 4.62 | 4.95 | – | –
7 | C/C(=C\CC[C@@H](C)[C@H]1CC(=O)[C@@]2(C)C3=C(C(=O)C[C@]12C)[C@@]1(C)CC[C@H](O)C(C)(C)[C@@H]1C[C@@H]3O)C(=O)O [ganoderic acid β] | – | – | significant inhibitory activity | –
8 | C[C@H](CCC=C(CO)CO)[C@H]1CC[C@@]2(C)C3=CC[C@H]4C(C)(C)C(=O)CC[C@]4(C)C3=CC[C@]12C [ganoderiol F, reference compound] | – | – | – | inhibition of HIV-1-induced cytopathic effect (HIV-1): inhibited
